Data as given in US11083725B2 (priority 2014, dated 2021).

System: NHBE cells
Test: Biolog metabolic array: substrate use by NHBE cells with or without CA09 infection
Assay type: cell-based, human
Details: for Substrate use, 590 nm absorbance normalized to zero hour, 0 hr: Biolog PMM2, 0 hr; for Substrate use, 590 nm absorbance normalized to zero hour, 1 hr: Biolog PMM2, 1 hr; for Substrate use, 590 nm absorbance normalized to zero hour, 5 hr: Biolog PMM2, 5 hr; for Substrate use, 590 nm absorbance normalized to zero hour, 7 hr: Biolog PMM2, 7 hr
[1] = Control (uninfected) NHBE cells
[2] = Virus (CA09-infected, MOI 1) NHBE cells
[3] = Virus: CA09-infected NHBE cells, MOI 1, Biolog PMM2

Molecule | 590 nm absorbance normalized to zero hour (substrate use), 0 hr [1] | 590 nm absorbance normalized to zero hour (substrate use), 1 hr [1] | 590 nm absorbance normalized to zero hour (substrate use), 4 hr [1] | 590 nm absorbance normalized to zero hour (substrate use), 6 hr [1] | 590 nm absorbance normalized to zero hour (substrate use), 8 hr [1] | 590 nm absorbance normalized to zero hour (substrate use), 9 hr [1] | 590 nm absorbance normalized to zero hour (substrate use), 10 hr [1] | 590 nm absorbance normalized to zero hour (substrate use), 11 hr [1] | Substrate use, 590 nm absorbance normalized to zero hour, 0 hr [1] | Substrate use, 590 nm absorbance normalized to zero hour, 1 hr [1] | Substrate use, 590 nm absorbance normalized to zero hour, 7 hr [1] | 590 nm absorbance normalized to zero hour (substrate use), 0 hr [2] | 590 nm absorbance normalized to zero hour (substrate use), 1 hr [2] | 590 nm absorbance normalized to zero hour (substrate use), 2 hr [2] | 590 nm absorbance normalized to zero hour (substrate use), 3 hr [2] | 590 nm absorbance normalized to zero hour (substrate use), 4 hr [2] | 590 nm absorbance normalized to zero hour (substrate use), 5 hr [2] | 590 nm absorbance normalized to zero hour (substrate use), 7 hr [2] | 590 nm absorbance normalized to zero hour (substrate use), 8 hr [2] | 590 nm absorbance normalized to zero hour (substrate use), 9 hr [2] | further results
C[C@@H](O)CC(=O)O [b-Hydroxy-Butyric Acid] | 1.00 | 1.65 | 2.31 | 2.37 | 2.68 | 2.90 | 3.02 | 7.04 | 1.00 | 1.65 | 2.49 | 1.00 | 1.78 | 2.31 | 2.61 | 2.77 | 3.16 | 3.47 | 3.62 | 3.79 | 590 nm absorbance normalized to zero hour (substrate use), 2 hr [1]: 2.08; 590 nm absorbance normalized to zero hour (substrate use), 3 hr [1]: 2.16; Substrate use, 590 nm absorbance normalized to zero hour, 5 hr [1]: 2.75; 590 nm absorbance normalized to zero hour (substrate use), 6 hr [2]: 3.34; 590 nm absorbance normalized to zero hour (substrate use), 10 hr [2]: 3.87; 590 nm absorbance normalized to zero hour (substrate use), 11 hr [2]: 3.29; 590 nm absorbance normalized to zero hour (substrate use), 0 hr [3]: 1.00; 590 nm absorbance normalized to zero hour (substrate use), 1 hr [3]: 1.78; 590 nm absorbance normalized to zero hour (substrate use), 2 hr [3]: 2.31; 590 nm absorbance normalized to zero hour (substrate use), 3 hr [3]: 2.61; 590 nm absorbance normalized to zero hour (substrate use), 4 hr [3]: 2.77; 590 nm absorbance normalized to zero hour (substrate use), 5 hr [3]: 3.16; 590 nm absorbance normalized to zero hour (substrate use), 6 hr [3]: 3.34; 590 nm absorbance normalized to zero hour (substrate use), 7 hr [3]: 3.47; 590 nm absorbance normalized to zero hour (substrate use), 8 hr [3]: 3.62; 590 nm absorbance normalized to zero hour (substrate use), 9 hr [3]: 3.79; 590 nm absorbance normalized to zero hour (substrate use), 10 hr [3]: 3.87; 590 nm absorbance normalized to zero hour (substrate use), 11 hr [3]: 3.29
Glycogen | 1.00 | 1.61 | 2.80 | 4.32 | 4.85 | 4.87 | 4.50 | 5.01 | 1.00 | 1.61 | 4.20 | 1.00 | 1.68 | 2.26 | 2.71 | 2.92 | 3.70 | 4.74 | 5.48 | 3.99 | Substrate use, 590 nm absorbance normalized to zero hour, 3 hr (Control (uninfected) NHBE cells, Biolog PMM2, 3 hr): 2.58; 590 nm absorbance normalized to zero hour (substrate use), 10 hr [2]: 4.33; 590 nm absorbance normalized to zero hour (substrate use), 11 hr [2]: 4.63; 590 nm absorbance normalized to zero hour (substrate use), 0 hr [3]: 1.00; 590 nm absorbance normalized to zero hour (substrate use), 1 hr [3]: 1.68; 590 nm absorbance normalized to zero hour (substrate use), 2 hr [3]: 2.26; 590 nm absorbance normalized to zero hour (substrate use), 3 hr [3]: 2.71; 590 nm absorbance normalized to zero hour (substrate use), 4 hr [3]: 2.92; 590 nm absorbance normalized to zero hour (substrate use), 5 hr [3]: 3.70; 590 nm absorbance normalized to zero hour (substrate use), 7 hr [3]: 4.74; 590 nm absorbance normalized to zero hour (substrate use), 8 hr [3]: 5.48; 590 nm absorbance normalized to zero hour (substrate use), 9 hr [3]: 3.99; 590 nm absorbance normalized to zero hour (substrate use), 10 hr [3]: 4.33; 590 nm absorbance normalized to zero hour (substrate use), 11 hr [3]: 4.63
OC[C@H]1O[C@H](OC[C@H]2O[C@H](O[C@]3(CO)O[C@H](CO)[C@@H](O)[C@@H]3O)[C@H](O)[C@@H](O)[C@@H]2O)[C@H](O)[C@@H](O)[C@H]1O [D-Raffinose] | 1.00 | 1.09 | 1.53 | 0.75 | 1.82 | 1.82 | 2.00 | 2.15 | 1.00 | 1.09 | 1.71 | 1.00 | 0.68 | 0.59 | 0.55 | 0.49 | 1.98 | 1.92 | 1.77 | 1.74 | 590 nm absorbance normalized to zero hour (substrate use), 2 hr [1]: 1.11; 590 nm absorbance normalized to zero hour (substrate use), 3 hr [1]: 1.37; Substrate use, 590 nm absorbance normalized to zero hour, 5 hr [1]: 1.75; 590 nm absorbance normalized to zero hour (substrate use), 6 hr [2]: 0.54; 590 nm absorbance normalized to zero hour (substrate use), 10 hr [2]: 1.15; 590 nm absorbance normalized to zero hour (substrate use), 11 hr [2]: 1.53; 590 nm absorbance normalized to zero hour (substrate use), 0 hr [3]: 1.00; 590 nm absorbance normalized to zero hour (substrate use), 1 hr [3]: 0.68; 590 nm absorbance normalized to zero hour (substrate use), 2 hr [3]: 0.59; 590 nm absorbance normalized to zero hour (substrate use), 3 hr [3]: 0.55; 590 nm absorbance normalized to zero hour (substrate use), 4 hr [3]: 0.49; 590 nm absorbance normalized to zero hour (substrate use), 5 hr [3]: 1.98; 590 nm absorbance normalized to zero hour (substrate use), 6 hr [3]: 0.54; 590 nm absorbance normalized to zero hour (substrate use), 7 hr [3]: 1.92; 590 nm absorbance normalized to zero hour (substrate use), 8 hr [3]: 1.77; 590 nm absorbance normalized to zero hour (substrate use), 9 hr [3]: 1.74; 590 nm absorbance normalized to zero hour (substrate use), 10 hr [3]: 1.15; 590 nm absorbance normalized to zero hour (substrate use), 11 hr [3]: 1.53
